According to patent publication US20110028345A1, “METHODS TO CHARACTERIZE CELL REPROGRAMMING AND USES THEREOF” (CORNING INCORPORATED, priority 2009, published 2011):
Ends that are not written are not given here.

Columns and labels:
[1] = system: undifferentiated and differentiated ReN cells; assay: DMR marker panel profiling, differentiated versus undifferentiated ReN cells; type: cell-based, human; settings: markers at 10 μM (dopamine and glucagons like peptide 128 μM); FIG. 9-11
Description: The confluency for all cells at the time of assays was ˜95% to 100%.
(§1) For biosensor cellular assays, compound solutions were made by diluting the stored concentrated solutions with the HBSS (1× Hanks balanced salt solution, plus 20 mM Hepes, pH 7.1), and transferred into a 384 well polypropylene compound storage plate to prepare a compound source plate. […] Afterwards, a 2 to 10 min continuous recording was carried out to establish a baseline, and to ensure that the cells reached a steady state.

[2] = system: differentiated ReNcell cells (endogenous dopamine receptors); assay: Epic RWG biosensor DMR assay on the neuronal cell system differentiated from ReNcell VM; type: cell-based, human; settings: for DMR signal upon stimulation: differentiated ReNcell cells, PD128907 and A68930 16 micromolar, dopamine 128 micromolar (FIG. 7A-C); for receptor to which the DMR signal is attributed: same doses as FIG. 7A-C
Description: For cell assay on Epic, undifferentiated cells were typically seeded using ˜3×10^3 cells per well in 50 μl of the corresponding culture medium in the biosensor microplate freshly coated with laminin, and were cultured at 37° C. under air/5% CO2. […] The medium was replaced with fresh ReNcell NSC Maintenance Medium every 2-3 days for 10 days. The confluency for all cells at the time of assays was ˜95% to 100%.
as §1

ReNcell progenitor cells = settings: 128 micromolar
Description: Afterwards, a 2 to 10 min continuous recording was carried out to establish a baseline, and to ensure that the cells reached a steady state. Cellular responses were then triggered by transferring 10 μl of the compound solutions into the cell assay plate using the on-board liquid handler.
Epic® wavelength interrogation system (Corning Inc., Corning, N.Y.) was used for whole cell sensing. This system consists of a temperature-control unit, an optical detection unit, and an on-board liquid handling unit with robotics. The detection unit is centered on integrated fiber optics, and enables kinetic measures of cellular responses with a time interval of ˜15 sec. The compound solutions were introduced by using the on-board liquid handling unit (i.e., pippetting).
For biosensor cellular assays, compound solutions were made by diluting the stored concentrated solutions with the HBSS (1× Hanks balanced salt solution, plus 20 mM Hepes, pH 7.1), and transferred into a 384 well polypropylene compound storage plate to prepare a compound source plate. Two compound source plates were made separately when a two-step assay was performed. […] Both the cell assay plate and the compound source plate(s) were then incubated in the hotel of the reader system. After incubation the baseline wavelengths of all biosensors in the cell assay microplate were recorded and normalized to zero. […]

quiescent A431 cells = assay: Modulation of marker-induced biosensor (DMR) responses in quiescent A431 cells; type: cell-based
Source text: (§2) A “modulation profile” or like terms is the comparison between a secondary profile of the marker in the presence of a molecule and the primary profile of the marker in the absence of any molecule. The comparison can be by, for example, subtracting the primary profile from secondary profile or subtracting the secondary profile from the primary profile or normalizing the secondary profile against the primary profile.
(§3) A “molecule modulation index” or like terms is an index to display the ability of the molecule to modulate the biosensor output signals of the panels of markers acting on the panel of cells. The modulation index is generated by normalizing a specific biosensor output signal parameter of a response of a cell upon stimulation with a marker in the presence of a molecule against that in the absence of any molecule.
(§4) Alternatively, different scores can be given for a type of modulation but with different scales. For example, a positive modulation of 10%, 20%, 30%, 40%, 50%, 60%, 100%, 200%, etc, can be given a score of +1, +2, +3, +4, +5, +6, +10, +20, correspondingly. Conversely, for negative modulation, similar but in opposite score can be given. […] Thus, the score of HA1077 modulation index in coordination can be assigned as (0, 0.5, −0.6, 0, −2.3, 0.6, 0, −6.8, 0.4, −3.6, −0.5, −1.6). Once a molecular index is generated, the molecular index can be compared with a library of known modulators to determine the mode(s) of action of the molecule of interest. […] Beside its indicative power of a DMR index for pharmacology of a molecule, a molecule DMR index can also be used to distinguish the cellular background of different types of cells.

A549 cell = assay: Modulation of marker-induced biosensor (DMR) responses in A549 cell; type: cell-based
Source text: as §2, §3, §4

`NCCCNCCCCNCCCN` [spermine] was tested, and the “specificity of the marker DMR signal for the differentiation state” value (“specificity … for the differentiation state” below) [1] was “specific to the differentiated ReN cells”.

For `NC[C@@H]1O[C@H](c2ccccc2)Cc2c1ccc(O)c2O` [A68930], the “DMR signal upon stimulation” value [2] was “small but reproducible DMR signal” and the “receptor to which the DMR signal is attributed” value (“receptor” for short) ([2]; differentiated cells) was “triggered a DMR signal specifically to the endogenous D1 receptor”.

“angiotensin II (DRVYIHPF; Angiotensin-2; UniProt P01019 25-32, looked up) [ATII receptor angiotensin II]” was tested, and the “specificity … for the differentiation state” value [1] was “specific to the undifferentiated cells”.

In the case of apelin, the “specificity … for the differentiation state” value [1] is reported as “non-specific to both the undifferentiated and differentiated ReN cells”.

“orexin A (QPLPDCCRQKTCSCRLYELLHGAGNHAAGILTL; ends and bridges not checked; cysteine pairing not given here; UniProt O43612 34-66, looked up) [orexin receptor agonist]” was tested, and the “specificity … for the differentiation state” value [1] was “specific to the differentiated ReN cells”.

In the case of “endothelin 1 (CSCSSLMDKECVYFCHLDIIW; ends and bridges not checked; cysteine pairing not given here; UniProt P05305 53-73, looked up) [endothelin receptor agonist]”, the “specificity … for the differentiation state” value [1] is reported as “specific to the differentiated ReN cells”.

`Nc1ncnc2c1ncn2[C@@H]1O[C@H](CO)[C@@H](O)[C@H]1O` [adenosine] was tested, and the “specificity … for the differentiation state” value [1] was “specific to the differentiated ReN cells”.

“substance P (RPKPQQFFGLM; ends and bridges not checked; UniProt P20366 58-68, looked up) [NKA receptor agonist]” was tested, and the “specificity … for the differentiation state” value [1] was “specific to the undifferentiated cells”.

`NCCc1ccc(O)cc1` [tyramine] was tested, and the “specificity … for the differentiation state” value [1] was “specific to the undifferentiated cells”.

With lysophosphatidic acid the “specificity … for the differentiation state” value [1] was “specific to the undifferentiated cells”.

“neuropeptide B-23 (WYKPAAGHSSYSVGRAAGLLSGLR; ends and bridges not checked; UniProt Q8NG41 25-48, looked up) [GPR7 and 8 agonist]” was tested, and the “specificity … for the differentiation state” value [1] was “specific to the differentiated ReN cells”.

For `NCCc1ccc(O)c(O)c1` [dopamine], the “specificity … for the differentiation state” value [1] was “non-specific to both the undifferentiated and differentiated ReN cells”, the “DMR signal 3 hr after attachment” value (ReNcell progenitor cells; 3 hr after attachment on laminin coated biosensor surface (FIG. 8B)) was “small but reproduced DMR signal” and the “DMR signal after 4 days undifferentiated culture” value (ReNcell progenitor cells; 4 days in growth factor rich medium (FIG. 8C)) was “distinct DMR signal (FIG. 8C), which was confirmed to be due to the activation of the endogenous D2 receptor”. The “DMR signal 10 days after differentiation and maturation” value ([2]; 128 micromolar, 10 days after differentiation (FIG. 8D)) was “distinct DMR signal which contains additional contributions from endogenous D1 receptors”, the “dose dependence of the DMR signal” value ([2]; amplitudes 50 min after stimulation as a function of concentration (FIG. 7D)) was “biphasic dose-dependent DMR signal” and the “DMR signal upon stimulation” value [2] was “small but reproducible DMR signal”. The “DMR signal at high doses” value ([2]; differentiated cells, high doses) was “close to the simple sum of both A68390 and PD129807 DMR signals”, the “DMR signal at low doses” value ([2]; differentiated cells, low doses (<4000 nM)) was “DMR signal similar to that induced by A68390” and the “receptor” value ([2]; differentiated cells) was “can activate both D1 and D2 receptors”.

In the case of glucagons like peptide, the “specificity … for the differentiation state” value [1] is reported as “specific to the undifferentiated cells”.

With `CCCN1CCO[C@@H]2c3cc(O)ccc3OC[C@H]21` [PD128907] the “DMR signal upon stimulation” value [2] was “small but reproducible DMR signal” and the “receptor” value ([2]; differentiated cells) was “activated another endogenous dopamine receptor (possibly D2 receptor)”.

With `Nc1ncnc2c1ncn2[C@@H]1O[C@H](COP(=O)(O)OP(=O)(O)OP(=O)(O)O)[C@@H](O)[C@H]1O` [ATP] the “specificity … for the differentiation state” value [1] was “specific to the differentiated ReN cells”.

In the case of “vasoactive intestinal peptide (HSDAVFTDNYTRLRKQMAVKKYLNSILN; ends and bridges not checked; UniProt P01282 125-152, looked up) [VIP receptor agonist]”, the “specificity … for the differentiation state” value [1] is reported as “specific to the differentiated ReN cells”.

Neuropeptide Y was tested, and the “specificity … for the differentiation state” value [1] was “specific to the differentiated ReN cells”.

For `N#CC(C#N)=C(N)/C(C#N)=C/c1cc(O)c(O)c(O)c1` [tyrphostin 51], the “mode of action concluded from the biosensor index” value (quiescent A431 cells; EGFR inhibitor (EGF DMR in A431) and PDE4 inhibitor (epinephrine, histamine in A431; forskolin in A549)) was “displays polypharmacology”, the “modulation of the EGF N-DMR” value (quiescent A431 cells; quiescent A431 cells, marker EGF, N-DMR) was −5% and the “modulation of the EGF P-DMR” value (quiescent A431 cells; quiescent A431 cells, marker EGF, P-DMR) was −36%. The “modulation of the biosensor response induced by epinephrine” value (quiescent A431 cells; quiescent A431 cells, marker epinephrine) was −68%, the “modulation of the biosensor response induced by histamine” value (quiescent A431 cells; quiescent A431 cells, marker histamine) was −16% and the “modulation of the biosensor response induced by nicotinic acid” value (quiescent A431 cells; quiescent A431 cells, marker nicotinic acid) was “+4%”. For the same compound, the “modulation of the biosensor response induced by PMA” value (A549 cell; marker PMA) was −6%, the “modulation of the biosensor response induced by SLIGKV-amide” value (A549 cell; marker SLIGKV-amide) was 0% and the “modulation of the biosensor response induced by forskolin” value (A549 cell; marker forskolin) was −23%. For the same compound, the “modulation of the histamine early response” value (A549 cell; marker histamine, early response) was “+6%”, the “modulation of the histamine late response” value (A549 cell; marker histamine, late response) was 0% and the “modulation of the biosensor response induced by pinacidil” value (A549 cell; marker pinacidil) was 0%. For the same compound, the “modulation of the biosensor response induced by poly (I:C)” value (A549 cell; marker poly (I:C)) was “+5%”.

For “dynorphin A (YGGFLRRIRPKLKWDNQ; Dynorphin A(1-17); UniProt P01213 207-223, looked up) [opioid receptor agonist]”, the “specificity … for the differentiation state” value [1] was “specific to the differentiated ReN cells”.

platelet growth factor was tested, and the “specificity … for the differentiation state” value [1] was “non-specific to both the undifferentiated and differentiated ReN cells”.

With `Nc1ncnc2c1ncn2[C@@H]1O[C@H](COP(=O)(O)OP(=O)(O)O)[C@@H](O)[C@H]1O` [ADP] the “specificity … for the differentiation state” value [1] was “non-specific to both the undifferentiated and differentiated ReN cells”.

`O=c1ccn([C@@H]2O[C@H](COP(=O)(O)OP(=O)(O)OP(=O)(O)O)[C@@H](O)[C@H]2O)c(=O)[nH]1` [UTP] was tested, and the “specificity … for the differentiation state” value [1] was “specific to the undifferentiated cells”.

In the case of “alpha-melanocyte-stimulating hormone (SYSMEHFRWGKPV; ends and bridges not checked; UniProt P01189 138-150, looked up) [MCH receptor agonist]”, the “specificity … for the differentiation state” value [1] is reported as “non-specific to both the undifferentiated and differentiated ReN cells”.

In the case of `O=c1ccn([C@@H]2O[C@H](COP(=O)(O)OP(=O)(O)O)[C@@H](O)[C@H]2O)c(=O)[nH]1` [UDP], the “specificity … for the differentiation state” value [1] is reported as “specific to the differentiated ReN cells”.

In the case of `NCCCC(=O)O` [GABA], the “specificity … for the differentiation state” value [1] is reported as “non-specific to both the undifferentiated and differentiated ReN cells”.

In the case of SFLLR-amide, the “specificity … for the differentiation state” value [1] is reported as “specific to the differentiated ReN cells”.
